Measurements: the NIST ThermoML archive (doi:10.1016/j.fluid.2018.11.011)
± gives the expanded uncertainty stated by the source.

Test: activity coefficient (dimensionless); of the first substance listed, at infinite dilution; xn = mol fraction of the nth substance listed
Details: 101.33 kPa, Liquid, Chromatography, x1 = 0

SMILES	activity coefficient (323 K)	activity coefficient (338 K)	activity coefficient (353 K)	activity coefficient (308 K)
ClCCCl [1,2-dichloroethane] + CCCCCCCCCC[N+](C)(C)CCCCCCCCCC.F[B-](F)(F)F	0.616 ± 0.065	0.622 ± 0.066	0.682 ± 0.071	–
ClCCCl [1,2-dichloroethane] + CCCCCCCCCC[N+](C)(C)CCCCCCCCCC.[O-][Cl+3]([O-])([O-])[O-]	0.464 ± 0.052	0.494 ± 0.055	0.482 ± 0.053	–
C=CCCCCC [1-heptene] + CCCCCCCCCC[N+](C)(C)CCCCCCCCCC.F[B-](F)(F)F	1.81 ± 0.19	1.83 ± 0.19	2.23 ± 0.23	1.79 ± 0.19
C=CCCCCC [1-heptene] + CCCCCCCCCC[N+](C)(C)CCCCCCCCCC.[O-][Cl+3]([O-])([O-])[O-]	1.85 ± 0.19	2.23 ± 0.23	2.15 ± 0.23	2.69 ± 0.28
C#CCCCCC [1-heptyne] + CCCCCCCCCC[N+](C)(C)CCCCCCCCCC.F[B-](F)(F)F	0.893 ± 0.091	0.894 ± 0.091	1.12 ± 0.12	0.892 ± 0.091
C#CCCCCC [1-heptyne] + CCCCCCCCCC[N+](C)(C)CCCCCCCCCC.[O-][Cl+3]([O-])([O-])[O-]	1.1 ± 0.11	1.17 ± 0.12	1.18 ± 0.12	1.14 ± 0.12
C#CCCCC [1-hexyne] + CCCCCCCCCC[N+](C)(C)CCCCCCCCCC.F[B-](F)(F)F	0.838 ± 0.086	0.826 ± 0.085	0.937 ± 0.096	0.85 ± 0.087
C#CCCCC [1-hexyne] + CCCCCCCCCC[N+](C)(C)CCCCCCCCCC.[O-][Cl+3]([O-])([O-])[O-]	0.83 ± 0.085	0.989 ± 0.1	0.969 ± 0.099	0.732 ± 0.076
C=CCCC [1-pentene] + CCCCCCCCCC[N+](C)(C)CCCCCCCCCC.F[B-](F)(F)F	1.2 ± 0.12	1.13 ± 0.12	1.26 ± 0.13	1.27 ± 0.13
C=CCCC [1-pentene] + CCCCCCCCCC[N+](C)(C)CCCCCCCCCC.[O-][Cl+3]([O-])([O-])[O-]	1.56 ± 0.16	1.37 ± 0.14	1.31 ± 0.13	1.88 ± 0.2
C/C=C(\C)CC [(E)-3-methyl-2-pentene] + CCCCCCCCCC[N+](C)(C)CCCCCCCCCC.F[B-](F)(F)F	1.71 ± 0.18	1.3 ± 0.13	1.43 ± 0.15	–
C/C=C(\C)CC [(E)-3-methyl-2-pentene] + CCCCCCCCCC[N+](C)(C)CCCCCCCCCC.[O-][Cl+3]([O-])([O-])[O-]	1.48 ± 0.15	1.49 ± 0.15	1.32 ± 0.14	–
C/C=C/C(C)C [(E)-4-methyl-2-pentene] + CCCCCCCCCC[N+](C)(C)CCCCCCCCCC.F[B-](F)(F)F	1.68 ± 0.17	1.45 ± 0.15	1.57 ± 0.16	–
C/C=C/C(C)C [(E)-4-methyl-2-pentene] + CCCCCCCCCC[N+](C)(C)CCCCCCCCCC.[O-][Cl+3]([O-])([O-])[O-]	1.68 ± 0.17	1.72 ± 0.18	1.46 ± 0.15	–
CC(C)=O [acetone] + CCCCCCCCCC[N+](C)(C)CCCCCCCCCC.F[B-](F)(F)F	0.991 ± 0.1	0.833 ± 0.086	0.86 ± 0.088	–
CC(C)=O [acetone] + CCCCCCCCCC[N+](C)(C)CCCCCCCCCC.[O-][Cl+3]([O-])([O-])[O-]	0.489 ± 0.054	0.537 ± 0.058	0.527 ± 0.057	–
CC#N [acetonitrile] + CCCCCCCCCC[N+](C)(C)CCCCCCCCCC.F[B-](F)(F)F	1.21 ± 0.12	1.06 ± 0.11	1.24 ± 0.13	–
CC#N [acetonitrile] + CCCCCCCCCC[N+](C)(C)CCCCCCCCCC.[O-][Cl+3]([O-])([O-])[O-]	0.543 ± 0.059	0.511 ± 0.056	0.46 ± 0.052	–
c1ccccc1 [benzene] + CCCCCCCCCC[N+](C)(C)CCCCCCCCCC.F[B-](F)(F)F	0.499 ± 0.055	0.519 ± 0.057	0.667 ± 0.07	–
c1ccccc1 [benzene] + CCCCCCCCCC[N+](C)(C)CCCCCCCCCC.[O-][Cl+3]([O-])([O-])[O-]	0.499 ± 0.055	0.59 ± 0.063	0.527 ± 0.057	–
CCCC [butane] + CCCCCCCCCC[N+](C)(C)CCCCCCCCCC.F[B-](F)(F)F	1.12 ± 0.12	1.04 ± 0.1	0.939 ± 0.096	1.21 ± 0.12
CCCC [butane] + CCCCCCCCCC[N+](C)(C)CCCCCCCCCC.[O-][Cl+3]([O-])([O-])[O-]	1.32 ± 0.14	1.28 ± 0.13	1.24 ± 0.13	1.36 ± 0.14
CCC(C)=O [butanone] + CCCCCCCCCC[N+](C)(C)CCCCCCCCCC.F[B-](F)(F)F	1.07 ± 0.11	0.903 ± 0.092	0.82 ± 0.084	–

SMILES	activity coefficient (323 K)	activity coefficient (338 K)	activity coefficient (353 K)	activity coefficient (308 K)
CCC(C)=O [butanone] + CCCCCCCCCC[N+](C)(C)CCCCCCCCCC.[O-][Cl+3]([O-])([O-])[O-]	0.532 ± 0.058	0.59 ± 0.063	0.585 ± 0.063	–
C1CCCCCC1 [cycloheptane] + CCCCCCCCCC[N+](C)(C)CCCCCCCCCC.F[B-](F)(F)F	1.61 ± 0.17	1.57 ± 0.16	1.98 ± 0.21	1.65 ± 0.17
C1CCCCCC1 [cycloheptane] + CCCCCCCCCC[N+](C)(C)CCCCCCCCCC.[O-][Cl+3]([O-])([O-])[O-]	2.04 ± 0.21	1.91 ± 0.2	1.78 ± 0.19	2.29 ± 0.24
C1CCCCC1 [cyclohexane] + CCCCCCCCCC[N+](C)(C)CCCCCCCCCC.F[B-](F)(F)F	1.43 ± 0.15	1.4 ± 0.14	1.73 ± 0.18	1.47 ± 0.15
C1CCCCC1 [cyclohexane] + CCCCCCCCCC[N+](C)(C)CCCCCCCCCC.[O-][Cl+3]([O-])([O-])[O-]	1.78 ± 0.19	1.66 ± 0.17	1.54 ± 0.16	2.05 ± 0.21
O=C1CCCCC1 [cyclohexanone] + CCCCCCCCCC[N+](C)(C)CCCCCCCCCC.F[B-](F)(F)F	9.47 ± 1	7.99 ± 0.84	9.05 ± 0.95	–
O=C1CCCCC1 [cyclohexanone] + CCCCCCCCCC[N+](C)(C)CCCCCCCCCC.[O-][Cl+3]([O-])([O-])[O-]	11.7 ± 1.2	9.68 ± 1	8.46 ± 0.89	–
C1CCCC1 [cyclopentane] + CCCCCCCCCC[N+](C)(C)CCCCCCCCCC.F[B-](F)(F)F	1.17 ± 0.12	1.13 ± 0.12	1.28 ± 0.13	1.21 ± 0.12
C1CCCC1 [cyclopentane] + CCCCCCCCCC[N+](C)(C)CCCCCCCCCC.[O-][Cl+3]([O-])([O-])[O-]	1.16 ± 0.12	1.26 ± 0.13	1.19 ± 0.12	1.48 ± 0.15
CCOCC [diethyl ether] + CCCCCCCCCC[N+](C)(C)CCCCCCCCCC.F[B-](F)(F)F	1.08 ± 0.11	0.769 ± 0.08	0.79 ± 0.081	–
CCOCC [diethyl ether] + CCCCCCCCCC[N+](C)(C)CCCCCCCCCC.[O-][Cl+3]([O-])([O-])[O-]	1.03 ± 0.1	0.848 ± 0.087	0.74 ± 0.077	–
CCO [ethanol] + CCCCCCCCCC[N+](C)(C)CCCCCCCCCC.F[B-](F)(F)F	0.469 ± 0.052	0.408 ± 0.047	0.422 ± 0.048	0.539 ± 0.058
CCO [ethanol] + CCCCCCCCCC[N+](C)(C)CCCCCCCCCC.[O-][Cl+3]([O-])([O-])[O-]	0.497 ± 0.055	0.582 ± 0.062	0.531 ± 0.058	0.623 ± 0.066
CCCCCCC [heptane] + CCCCCCCCCC[N+](C)(C)CCCCCCCCCC.F[B-](F)(F)F	3.04 ± 0.32	2.62 ± 0.28	2.48 ± 0.26	3.53 ± 0.37
CCCCCCC [heptane] + CCCCCCCCCC[N+](C)(C)CCCCCCCCCC.[O-][Cl+3]([O-])([O-])[O-]	2.96 ± 0.31	2.85 ± 0.3	2.67 ± 0.28	3.11 ± 0.33
C=CCCCC [hex-1-ene] + CCCCCCCCCC[N+](C)(C)CCCCCCCCCC.F[B-](F)(F)F	1.52 ± 0.16	1.53 ± 0.16	1.76 ± 0.18	1.51 ± 0.16
C=CCCCC [hex-1-ene] + CCCCCCCCCC[N+](C)(C)CCCCCCCCCC.[O-][Cl+3]([O-])([O-])[O-]	1.56 ± 0.16	1.8 ± 0.19	1.73 ± 0.18	2.28 ± 0.24
CCCCCC [hexane] + CCCCCCCCCC[N+](C)(C)CCCCCCCCCC.F[B-](F)(F)F	2.51 ± 0.26	2.3 ± 0.24	2.2 ± 0.23	2.73 ± 0.29
CCCCCC [hexane] + CCCCCCCCCC[N+](C)(C)CCCCCCCCCC.[O-][Cl+3]([O-])([O-])[O-]	2.48 ± 0.26	2.47 ± 0.26	2.45 ± 0.26	2.49 ± 0.26
CO [methanol] + CCCCCCCCCC[N+](C)(C)CCCCCCCCCC.F[B-](F)(F)F	0.289 ± 0.038	0.285 ± 0.038	0.327 ± 0.041	0.294 ± 0.039
CO [methanol] + CCCCCCCCCC[N+](C)(C)CCCCCCCCCC.[O-][Cl+3]([O-])([O-])[O-]	0.351 ± 0.043	0.419 ± 0.048	0.407 ± 0.047	0.447 ± 0.051
C=CCCCCCC [oct-1-ene] + CCCCCCCCCC[N+](C)(C)CCCCCCCCCC.F[B-](F)(F)F	0.757 ± 0.078	0.749 ± 0.078	0.951 ± 0.097	0.765 ± 0.079
